IC50 data for 18 molecules are collected here from patent US20240360137A1 (Novartis AG, priority 2023, published 2024).

Common to all, as to test: CDKi biochemical assay (TR-FRET, phosphorylation of S780 on RB1 peptide)
Assay [1] deals with CDK6/cyclinD3 (Homo sapiens, UniProt Q00534). To be noted: CDK6/cyclinD3 10 pM, 1 mM ATP, 60 min at 25° C. In outline: (§1)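 Avi-tagged, biotinylated CDK4/cyclinD1 (20 pM) or CDK6/cyclinD3 (10 pM) phosphorylates 200 nM His-MBP-RB1[773-924] at S780 with 1 mM ATP in HEPES pH 7.5/MgCl2, 60 min, 25° C. After EDTA quench, Eu anti-pRB(S780)/SA-APC TR-FRET is read after 3 h. Apparent IC50 comes from % activity versus log concentration.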

The target of assay [2] is CDK4/cyclinD1 (Homo sapiens, UniProt P11802). To be noted: CDK4/cyclinD1 20 pM, 1 mM ATP, 60 min at 25° C. A digest of the protocol: as §1
In assay [3] the target is CDK2/CyclinE1 (Homo sapiens, UniProt P24941). To be noted: CDK2/CyclinE1 100 pM, 1 mM ATP, 60 min at 25° C. A digest of the protocol:
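CDK2/CyclinE1 (Avi-tag, 100 pM; CDK2 E. coli-expressed) phosphorylated His-MBP-RB1[773-924] (200 nM) at S780 with 1 mM ATP in HEPES pH 7.5/MgCl2/DTT, 60 min at 25° C. After EDTA quench, TR-FRET detection ran 3 h (Eu anti-p-RB S780, SA-APC). Apparent IC50 came from percent activity versus log concentration.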

The target of assay [4] is CDK1/CyclinB1 (Homo sapiens, UniProt P06493). As to conditions: CDK1/CyclinB1 10 pM, 1 mM ATP, 60 min at 25° C. A digest of the protocol:
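CDK1/CyclinB1 (10 pM, Avi-tagged, insect-cell expressed) phosphorylated S780 of His-MBP-RB1[773-924] (200 nM) with 1 mM ATP in HEPES pH 7.5, 10 mM MgCl2, 1 mM DTT, 60 min at 25 °C. After EDTA quench, TR-FRET detection (Eu anti-pRB S780, SA-APC) for 3 h; apparent IC50 from percent activity versus log concentration.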

Bounds are passed on as bounds.

For the molecule `O=C1N([C@@H]2CCC[C@@H](O)C2)c2nc(Nc3c[nH]nc3-c3ccncc3)ncc2C12CC2` [Example 59, 7′-((1R,3R)-3-hydroxycyclohexyl)-2′-((3-(pyridin-4-yl)-1H-pyrazol-4-yl)amino)spiro[cyclopropane-1,5′-pyrrolo[2,3-d]pyrimidin]-6′(7′H)-one], the IC50 is at least 10000 nM in assay [1], at least 10000 nM in assay [2], 251 nM in assay [3] and at least 10000 nM in assay [4].

With `COCc1ncc(Nc2ncc3c(n2)N([C@@H]2CCC[C@@H](O)C2)C(=O)C32CC2)[nH]1` [Example 11, 7′-((1R,3R)-3-hydroxycyclohexyl)-2′-((2-(methoxymethyl)-1H-imidazol-5-yl)amino)spiro[cyclopropane-1,5′-pyrrolo[2,3-d]pyrimidin]-6′(7′H)-one], the IC50 in assay [1] is 9350 nM; in assay [2] it was 5730 nM; in assay [3] it was 1350 nM; in assay [4], at least 10000 nM.

Consider `O=C1N([C@@H]2CCC[C@@H](O)C2)c2nc(Nc3c[nH]nc3O)ncc2C12CC2` [Example 77, 2′-((3-hydroxy-1H-pyrazol-4-yl)amino)-7′-((1R,3R)-3-hydroxycyclohexyl)spiro[cyclopropane-1,5′-pyrrolo[2,3-d]pyrimidin]-6′(7′H)-one], for which the IC50 came to 5260 nM in assay [1], 1480 nM in assay [2], 121 nM in assay [3] and 5820 nM in assay [4].

With `Cc1n[nH]cc1Nc1ncc2c(n1)N([C@@H]1CCC[C@@H](O)C1)C(=O)C21CC1` [Example 2, 7′-((1R,3R)-3-hydroxycyclohexyl)-2′-((3-methyl-1H-pyrazol-4-yl)amino)spiro[cyclopropane-1,5′-pyrrolo[2,3-d]pyrimidin]-6′(7′H)-one], the IC50 in assay [1] is 6680 nM; in assay [2] it was 4520 nM; in assay [3], 18 nM; in assay [4], 1210 nM.

For `O=C1N([C@@H]2CCC[C@@H](O)C2)c2nc(Nc3c[nH]nc3O[C@H]3CCOC3)ncc2C12CC2` [Example 78, 7′-((1R,3R)-3-hydroxycyclohexyl)-2′-((3-(((S)-tetrahydrofuran-3-yl)oxy)-1H-pyrazol-4-yl)amino)spiro[cyclopropane-1,5′-pyrrolo[2,3-d]pyrimidin]-6′(7′H)-one], the IC50 in assay [1] came to 3540 nM; in assay [2] it was 2600 nM; in assay [3] it was 17 nM; in assay [4], 2540 nM.

In the case of `Cn1ccc(-c2n[nH]cc2Nc2ncc3c(n2)N([C@@H]2CCC[C@@H](O)C2)C(=O)C32CC2)n1` [Example 79, 7-((1R,3R)-3-hydroxycyclohexyl)-2′-((1′-methyl-1H,1′H-[3,3′-bipyrazol]-4-yl)amino)spiro[cyclopropane-1,5′-pyrrolo[2,3-d]pyrimidin]-6′(7′H)-one], the IC50 is at least 10000 nM in assay [1], at least 10000 nM in assay [2], 50 nM in assay [3] and at least 10000 nM in assay [4].

As to `N#CC1(COc2n[nH]cc2Nc2ncc3c(n2)N([C@@H]2CCC[C@@H](O)C2)C(=O)C32CC2)CC1` [Example 67, 1-(((4-((7′-((1R,3R)-3-hydroxycyclohexyl)-6′-oxo-6′,7′-dihydrospiro[cyclopropane-1,5′-pyrrolo[2,3-d]pyrimidin]-2′-yl)amino)-1H-pyrazol-3-yl)oxy)methyl)cyclopropane-1-carbonitrile], the IC50 in assay [1] was at least 10000 nM; in assay [2], 6910 nM; in assay [3], 23 nM; in assay [4], 4130 nM.

Regarding `CO[C@H]1C[C@H](Oc2n[nH]cc2Nc2ncc3c(n2)N([C@@H]2CCC[C@@H](O)C2)C(=O)C32CC2)C1` [Example 82, 7′-((1R,3R)-3-hydroxycyclohexyl)-2′-((3-((1r,3R)-3-methoxycyclobutoxy)-1H-pyrazol-4-yl)amino)spiro[cyclopropane-1,5′-pyrrolo[2,3-d]pyrimidin]-6′(7′H)-one], the IC50 in assay [1] is at least 10000 nM; in assay [2] it was at least 10000 nM; in assay [3], 26 nM; in assay [4], 2530 nM.

With `O=C1N([C@@H]2CCC[C@@H](O)C2)c2nc(Nc3c[nH]nc3-c3cnn4ccccc34)ncc2C12CC2` [Example 28, 7′-((1R,3R)-3-hydroxycyclohexyl)-2′-((3-(pyrazolo[1,5-a]pyridin-3-yl)-1H-pyrazol-4-yl)amino)spiro[cyclopropane-1,5′-pyrrolo[2,3-d]pyrimidin]-6′(7′H)-one], the IC50 in assay [1] was found to be 2540 nM; in assay [2] it was 2120 nM; in assay [3], 11 nM; in assay [4] it was 1180 nM.

As to `Cn1ccc(COc2n[nH]cc2Nc2ncc3c(n2)N([C@@H]2CCC[C@@H](O)C2)C(=O)C32CC2)n1` [Example 43, 7′-((1R,3R)-3-hydroxycyclohexyl)-2′-((3-((1-methyl-1H-pyrazol-3-yl)methoxy)-1H-pyrazol-4-yl)amino)spiro[cyclopropane-1,5′-pyrrolo[2,3-d]pyrimidin]-6′(7′H)-one], the concentration for half-maximal inhibition (IC50) stood at 8840 nM in assay [1], 3090 nM in assay [2], 19 nM in assay [3] and 1760 nM in assay [4].

For the molecule `O=C1N([C@@H]2CCC[C@@H](O)C2)c2nc(Nc3c[nH]nc3-c3nnco3)ncc2C12CC2` [Example 83, 2′-((3-(1,3,4-oxadiazol-2-yl)-1H-pyrazol-4-yl)amino)-7′-((1R,3R)-3-hydroxycyclohexyl)spiro[cyclopropane-1,5′-pyrrolo[2,3-d]pyrimidin]-6′(7′H)-one], the IC50 in assay [1] stood at 2670 nM; in assay [2], 2180 nM; in assay [3] it was 31 nM; in assay [4] it was 8620 nM.

For the molecule `Cn1ncc(-c2n[nH]cc2Nc2ncc3c(n2)N([C@@H]2CCC[C@@H](O)C2)C(=O)C32CC2)c1C(F)(F)F` [Example 84, 7′-((1R,3R)-3-hydroxycyclohexyl)-2′-((1′-methyl-5′-(trifluoromethyl)-1H,1′H-[3,4′-bipyrazol]-4-yl)amino)spiro[cyclopropane-1,5′-pyrrolo[2,3-d]pyrimidin]-6′(7′H)-one], the IC50 in assay [1] is at least 10000 nM; in assay [2] it was at least 10000 nM; in assay [3], 88 nM; in assay [4], at least 10000 nM.

For `O=C1N([C@@H]2CCC[C@@H](O)C2)c2nc(Nc3c[nH]nc3[C@@H]3CC3(F)F)ncc2C12CC2` [Example 33, 2′-((3-((S)-2,2-difluorocyclopropyl)-1H-pyrazol-4-yl)amino)-7′-((1R,3R)-3-hydroxycyclohexyl)spiro[cyclopropane-1,5′-pyrrolo[2,3-d]pyrimidin]-6′(7′H)-one], the IC50 in assay [1] was at least 10000 nM; in assay [2], at least 10000 nM; in assay [3] it was 49 nM; in assay [4], 3760 nM.

In the case of `Cc1c(-c2n[nH]cc2Nc2ncc3c(n2)N([C@@H]2CCC[C@@H](O)C2)C(=O)C32CC2)cnn1C(F)F` [Example 62], the IC50 in assay [1] came out at 1830 nM; in assay [2], 2300 nM; in assay [3], 17 nM; in assay [4] it was 4230 nM.

On to `O=C1N([C@@H]2CCC[C@@H](O)C2)c2nc(Nc3c[nH]nc3OCCF)ncc2C12CC2` [Example 39, 2′-((3-(2-fluoroethoxy)-1H-pyrazol-4-yl)amino)-7′-((1R,3R)-3-hydroxycyclohexyl)spiro[cyclopropane-1,5′-pyrrolo[2,3-d]pyrimidin]-6′(7′H)-one], for which the IC50 came to 2950 nM in assay [1], 1430 nM in assay [2], 7 nM in assay [3] and 1200 nM in assay [4].

Regarding `O=C1N([C@@H]2CCC[C@@H](O)C2)c2nc(Nc3c[nH]nc3OC3CCC(F)(F)C3)ncc2C12CC2` (stereo partly drawn) [Example 30], the IC50 in assay [1] is 9800 nM; in assay [2], 6950 nM; in assay [3], 22 nM; in assay [4], 4270 nM.

As to `CSCc1n[nH]cc1Nc1ncc2c(n1)N([C@@H]1CCC[C@@H](O)C1)C(=O)C21CC1` [Example 68, 7′-((1R,3R)-3-hydroxycyclohexyl)-2′-((3-((methylthio)methyl)-1H-pyrazol-4-yl)amino)spiro[cyclopropane-1,5′-pyrrolo[2,3-d]pyrimidin]-6′(7′H)-one], the IC50 was found to be 7600 nM in assay [1], 4150 nM in assay [2], 7 nM in assay [3] and 970 nM in assay [4].

In the case of `O=C1N([C@@H]2CCC[C@@H](O)C2)c2nc(Nc3c[nH]nc3OCC3COCC3(F)F)ncc2C12CC2` (stereo partly drawn) [Example 76, 2′-((3-((4,4-difluorotetrahydrofuran-3-yl)methoxy)-1H-pyrazol-4-yl)amino)-7′-((1R,3R)-3-hydroxycyclohexyl)spiro[cyclopropane-1,5′-pyrrolo[2,3-d]pyrimidin]-6′(7′H)-one], the IC50 in assay [1] was at least 10000 nM; in assay [2], 7270 nM; in assay [3], 32 nM; in assay [4] it was 3290 nM.
